According to US5654310A, “Triazolopyrimidones their preparation and use” (BASF Aktiengesellschaft, priority 1992, dated 1997):

Key:
[1] = target: T1, NMDA (N-methyl-D-aspartate) receptor (Rattus norvegicus, UniProt P35439); test: Binding of ^3 H-5,7-dichlorokynurenic acid (displacement on rat cerebral membranes); conditions: rat cerebra membranes, pH 7.4, 30 minutes on ice
T1 construct: freshly removed rat cerebra were homogenized; from tissue; host or cells: rat cerebrum, washed membranes

AMPA receptor = test: Binding of ^3 H-AMPA (displacement on rat cerebral membranes); conditions: rat cerebra membranes, pH 7.1, 60 minutes on ice
Procedure: For this, the membrane material was treated in the presence of the compounds according to the invention with the radio-labeled substances ^3 H-2-amino-3-hydroxy-5-methyl-4-isoxazolepropionic acid (^3 H-AMPA) and ^3 H-5,7-dichlorocyanuric [sic] acid, which bind to specific receptors (AMPA and NMDA (N-methyl-D-aspartate) receptors respectively). Subsequently the radioactivity in the treated membranes was measured by scintillation counting. It was possible from the bound radioactivity to determine the amounts of bound 3H AMPa and ^3 H-5,7-dichlorokyanurenicacid, or the amounts of each of these radiolabeled substances displaced.
1. Binding of ^3 H-2-amino-3-hydroxy-5-methyl-4-isoxazolepropionic acid (^3 H-AMPA).
To prepare the membrane material, freshly removed rat cerebra were homogenized together with about 15 times the volume of a buffer solution A composed of 30 mM α,α,α-tris(hydroxymethyl)methylamine hydrochloride (TRIS-HCl) and 0.5 mM ethylenediaminetetraacetic acid (EDTA), pH 7.4, using an Ultra-TURRAX. The suspension was centrifuged at 48,000 g for 20 min. After removal of the supernatant liquid, the protein-containing membrane material present in the pellet was washed three times by suspension in buffer solution A and subsequent centrifugation at 48,000 g for 20 minutes each time. The membrane material was then suspended in 15 times the volume of buffer solution A and incubated at 37° C. for 30 minutes. Subsequently the protein material was washed twice by centrifugation and suspension and was stored at -70° C. until used.
For the binding test, the protein material was thawed at 37° C. and washed twice by centrifugation at 48,000 g (20 min) and subsequent suspension in a buffer solution B composed of 50 mM TRIS-HCl, 0.1M potassium thiocyanate and 2.5 mM calcium chloride, pH 7.1. […] The filtrate [sic] was subsequently washed with 5 ml of cold buffer solution B in order to separate bound and free ^3 H-AMPA from one another. After measurement of the radioactivity of the bound ^3 H-AMPA in the membrane material by scintillation counting, the KI was determined by regression analysis of the displacement plots.

Compound | Ki [1] [nM] | Ki (AMPA receptor) [nM]
O=C(O)c1nc2c3c(nc(=O)n2[nH]1)CCCC3 [Example 2, 7,8,9,10-Tetrahydro-1,2,4-triazolo[1,5-c]quinazolin-5-one-2-carboxylic acid] | 200 | 
O=C(NCc1ccccc1)c1nc2c3c([nH]c(=O)n2n1)CCCC3 [Example 3, 7,8,9,10-Tetrahydro-1,2,4-triazolo[1,5-c]quinazolin-5-one-2-carboxylic acid N-benzylolylamide] | 1200 | 1500
O=C(O)c1nc2c3c([nH]c(=O)n2n1)CCC3 [Example 6] | 1600 | 
CCOC(=O)c1nc2c3c([nH]c(=O)n2n1)CCCCC3 [Example 7] | 400 | 
O=C(O)c1nc2c3c([nH]c(=O)n2n1)CCCCC3 [Example 8] | 200 | 
O=C(O)CCc1nc2c3c([nH]c(=O)n2n1)-c1ccccc1CC3 [Example 11] | 100 | 1000

Second part, the compound after the results:

Ki [1] [nM] | Ki (AMPA receptor) [nM] | Compound
650 |  | CCOC(=O)c1nc2c3c([nH]c(=O)n2n1)-c1ccccc1CC3 [Example 9]
300 | 1700 | O=C(O)c1nc2c3c([nH]c(=O)n2n1)-c1ccccc1CC3 [Example 10]
1600 |  | O=C(NCc1ccc(Cl)c(Cl)c1)c1nc2c3c([nH]c(=O)n2n1)CCCC3 [Example 12]
2000 |  | O=C(NCc1ccc([N+](=O)[O-])cc1)c1nc2c3c([nH]c(=O)n2n1)CCCC3 [Example 15]
800 |  | O=C(O)c1nc2c3c([nH]c(=O)n2n1)CCSC3 [Example 18]
2600 | 1700 | CCOC(=O)c1nc2c3c([nH]c(=O)n2n1)CC1CCCCC1C3 (stereo not shown) [Example 21]
